Key:
[1] = system: ERK1/2 phosphorylation of p90RSK in HT29 cells; assay: pRSK MSD Assay in HT29 cells; type: cell-based; conditions: Homo sapiens, HT-29, read-out: ERK1/ERK2 PRSK MSD HT29 EC50
Method: The protocol below describes an assay to measure the kinase activity of ERK1/2 to phosphorylate a substrate, p90RSK, in the presence or absence of a test compound. This experiment was conducted using a Mesoscale Discovery plate. The day before the assay, HT29 cells were split and plated at 50,000 cells/well in complete growth media. After allowing cells to adhere, the media was removed and replaced with media containing 0.1% FBS and incubated overnight. Blank MSD plates (Mesoscale Discovery, Cat # L15XA3) were coated with 25 μl/well RSK capture antibody (BD Biosciences, Cat. #610226) and incubated at 4° C. overnight, then blocked with 150 μl of 3% BSA solution. The next day, the media from the cell culture plate was removed and replaced with 100 μl of media containing a test compound and incubated for 120 minutes at 37° C. The media was removed and replaced with 55 μl per well of lysis buffer with protease inhibitors (Roche Biosciences, Cat. #11836170001) and phosphatase inhibitors (Sigma-Aldrich, Cat. # P-0044 and P-5726), followed by incubation at 4° C. for 30 minutes. 50 μl of lysate was transferred to a blocked MSD plate, followed by incubation at room temperature for 2 hours under constant shaking. The plate was washed 3 times with MSD wash buffer (Mesoscale Discovery, Cat. # R617TX), and 25 μl/well phospho-RSK (pRSK) detection antibody (Cell Signaling Technology, Cat. #9335) was added with Sulfo-tagged detection antibody (Mesoscale Discovery, Cat. # R32AB-1) diluted in 1% BSA in MSD wash buffer. This mixture was incubated for 1 hour at room temperature under constant shaking. The plate was washed 3 times, and 150 μl 1×MSD read buffer was added, followed by signal detection in an MSD plate reader.

[2] = biological target: T1, MEK1 activated ERK1 (Homo sapiens, UniProt P27361); assay: Omnia continuous-read kinase assay for potency against MEK1 activated ERK1; type: biochemical; conditions: MEK1 activated ERK1, ATP at KM; read-out: ERK1 Omnia WT ATP KM IC50
T1 construct: purchased Millipore (Billerica, Mass.) 14-439-K
From the text: Omnia Assay Protocol for Potency Assessment Against MEK1 Activated ERK1:
The protocol below describes continuous-read kinase assays to measure potency of compounds against activated ERK1 enzyme. The mechanics of the assay platform are best described by the vendor (Invitrogen, Carlsbad, Calif.) on their website at the following URL: invitrogen.com/site/us/en/home.html.
Briefly, a 1.25× stock of ERK1 enzyme (14-439-K) from Millipore (Billerica, Mass.), 5×ATP (AS001A) and ST17-Sox conjugated peptide substrate (KNZ1171C) were prepared in 1× kinase reaction buffer consisting of 20 mM Tris, pH 7.5, 5 mM MgCl2, 1 mM EGTA, 5 mM β-glycerophosphate, 5% glycerol (10× stock, KB002A) and 0.2 mM DTT. 10 μL of ATP/ST17-sox peptide substrate mix was combined with 0.5 μL volume of 100% DMSO and serially diluted compounds were prepared in 100% DMSO in a Corning (#3574) 384-well, white, non-binding surface microtiter plate (Corning, N.Y.). Kinase reactions were started with the addition of 40 μL of ERK1 solution and monitored every 71 seconds for 30-240 minutes at λex360/λem485 in a Synergy plate reader from BioTek (Winooski, Vt.). At the conclusion of each assay, progress curves from each well were examined for linear reaction kinetics and fit statistics (R^2, 95% confidence interval, absolute sum of squares). Initial velocity (0 minutes to ˜30+ minutes) from each reaction was determined from the slope of a plot of relative fluorescence units vs time (minutes or seconds) and then plotted against inhibitor concentration to estimate ^AppIC50 from log [Inhibitor] vs Response, Variable Slope model in GraphPad Prism from GraphPad Software (San Diego, Calif.).
[Reagent] used in optimized protocol:
[ERK1]=4 nM, [ATP]=50 μM, [ST17-Sox]=10 μM (ATP ^appKM 48 μM)
The results of this assay show the degree of inhibition of ERK activity, which is a direct measurement of inhibition of ERK activity. Results from this assay are reported in Table A under the column “ERK1 Omnia WT ATP KM IC50 (nM).”

T1 sequence (P27361 whole entry): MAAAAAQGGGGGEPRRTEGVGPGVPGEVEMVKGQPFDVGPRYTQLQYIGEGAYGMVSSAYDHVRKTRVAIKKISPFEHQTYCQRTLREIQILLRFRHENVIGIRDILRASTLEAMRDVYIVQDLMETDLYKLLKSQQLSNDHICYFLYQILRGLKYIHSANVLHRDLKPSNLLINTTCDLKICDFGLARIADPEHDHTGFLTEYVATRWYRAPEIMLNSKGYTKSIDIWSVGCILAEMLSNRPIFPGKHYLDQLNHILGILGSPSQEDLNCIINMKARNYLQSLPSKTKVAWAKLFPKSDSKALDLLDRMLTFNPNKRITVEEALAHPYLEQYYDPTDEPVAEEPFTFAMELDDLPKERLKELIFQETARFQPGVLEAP

Compound	EC50 [1] [nM]	IC50 [2] [nM]
C/C=C/C(=O)Nc1cc(F)ccc1Nc1nc(N[C@@H]2CCC[C@H](C(N)=O)C2)ncc1C(F)(F)F (racemic) [Compound I-6, Rac-(E)-3-((4-((2-(but-2-enamido)-4-fluorophenyl)amino)-5-(trifluoromethyl)pyrimidin-2-yl)amino)-cis-cyclohexanecarboxamide]	> 1000	> 1000
C=CC(=O)Nc1ccccc1Nc1nc(N[C@@H]2CCC[C@H](C(=O)O)C2)ncc1C(F)(F)F (racemic) [Compound I-14, Rac-3-((4-((2-acrylamidophenyl)amino)-5-(trifluoromethyl)pyrimidin-2-yl)amino)-cis-cyclohexanecarboxylic acid]	> 1000	101 to 500
CC(=O)N1CCC[C@H](Nc2ncc(C(F)(F)F)c(NC3C4C=CC(C4)C3C(=O)NC#N)n2)C1 (mixture of isomers) [Compound I-25, Rac-3-((2-(((S)-1-acetylpiperidin-3-yl)amino)-5-(trifluoromethyl)pyrimidin-4-yl)-cis-amino)-N-cyanobicyclo[2.2.1]hept-5-ene-2-carboxamide]	> 1000	> 1000
C=CC(=O)N(C)c1ccccc1Nc1nc(N[C@@H]2CCC[C@H](C(=O)NOC)C2)ncc1Cl (racemic) [Compound I-106, Rac-cis-3-((5-chloro-4-((2-(N-methylacrylamido)phenyl)amino)pyrimidin-2-yl)amino)-N-methoxycyclohexanecarboxamide]	> 1000	> 1000
C=C(C)C(=O)Nc1cc(F)ccc1Nc1nc(N[C@@H]2CCC[C@H](C(N)=O)C2)ncc1Cl (racemic) [Compound I-114, Rac-cis-3-((5-chloro-4-((4-fluoro-2-methacrylamidophenyl)amino)pyrimidin-2-yl)amino)cyclohexanecarboxamide]	> 1000	> 1000
C=CC(=O)N[C@H]1CCCC[C@@H]1Nc1nc(N[C@H]2CCCN(C(=O)CO)C2)ncc1Cl (racemic) [Compound I-141, Rac-N-(2-((5-chloro-2-(((R)-1-(2-hydroxyacetyl)piperidin-3-yl)amino)pyrimidin-4-yl)amino)-trans-cyclohexyl)acrylamide]	501 to 999	101 to 500
C=CC(=O)N[C@@H]1CCCC[C@H]1Nc1nc(Nc2cc(C(=O)NOC)ccc2C)ncc1Cl (racemic) [Compound I-188, Rac-trans-3-((4-((2-acrylamidocyclohexyl)amino)-5-chloropyrimidin-2-yl)amino)-N-methoxy-4-methylbenzamide]	> 1000	> 1000
C=CC(=O)N[C@@H]1CCCC[C@H]1Nc1nc(Nc2cc(C(N)=O)ccc2C)ncc1Cl (racemic) [Compound I-226, Rac-trans-3-((4-((2-acrylamidocyclohexyl)amino)-5-chloropyrimidin-2-yl)amino)-4-methylbenzamide]	501 to 999	501 to 999
CC(=O)N1CCC[C@H](Nc2ncc(C(F)(F)F)c(Nc3ccccc3NC(=O)CCl)n2)C1 [Compound I-30, (S)—N-(2-((2-((1-Acetylpiperidin-3-yl)amino)-5-(trifluoromethyl)pyrimidin-4-yl)amino)phenyl)-2-chloroacetamide]	> 1000	101 to 500
O=C(CCl)Nc1ccccc1Nc1nc(N[C@H]2CCCN(C(=O)CCl)C2)ncc1C(F)(F)F [Compound I-31, (S)-2-Chloro-N-(2-((2-((1-(2-chloroacetyl)piperidin-3-yl)amino)-5-(trifluoromethyl)pyrimidin-4-yl)amino)phenyl)acetamide]	> 1000	501 to 999
C#CC(=O)N[C@@H]1CCCC[C@H]1Nc1nc(N[C@H]2CCCN(C(=O)CO)C2)ncc1C(F)(F)F [Compound I-34, N-((1R,2R)-2-((2-(((S)-1-(2-Hydroxyacetyl)piperidin-3-yl)amino)-5-(trifluoromethyl)pyrimidin-4-yl)amino)cyclohexyl)propiolamide]	> 1000	101 to 500
O=C(CCl)N[C@@H]1CCCC[C@H]1Nc1nc(N[C@H]2CCCN(C(=O)CO)C2)ncc1C(F)(F)F [Compound I-35, 2-Chloro-N-((1R,2R)-2-((2-(((S)-1-(2-hydroxyacetyl)piperidin-3-yl)amino)-5-(trifluoromethyl)pyrimidin-4-yl)amino)cyclohexyl)acetamide]	> 1000	101 to 500
C=CC(=O)Nc1ccc(C)cc1Nc1nc(NC2CCC(=O)CC2)ncc1C(F)(F)F [Compound I-39, N-(4-Methyl-2-((2-((4-oxocyclohexyl)amino)-5-(trifluoromethyl)pyrimidin-4-yl)amino)phenyl)acrylamide]	501 to 999	101 to 500
C=CC(=O)Nc1ccccc1Nc1nc(Nc2cncc(C(N)=O)c2)ncc1C(F)(F)F [Compound I-63, 5-((4-((2-Acrylamidophenyl)amino)-5-(trifluoromethyl)pyrimidin-2-yl)amino)nicotinamide]	> 1000	101 to 500
C=CC(=O)Nc1ccccc1Nc1nc(Nc2cc(C(=O)NOC)ccc2OC)ncc1C(F)(F)F [Compound I-67, 3-((4-((2-Acrylamidophenyl)amino)-5-(trifluoromethyl)pyrimidin-2-yl)amino)-N,4-dimethoxybenzamide]	501 to 999	101 to 500
C=CC(=O)Nc1ccccc1Nc1nc(Nc2cc(C(=O)NOCCO)ccc2C#N)ncc1C(F)(F)F [Compound I-75, 3-((4-((2-Acrylamidophenyl)amino)-5-(trifluoromethyl)pyrimidin-2-yl)amino)-4-cyano-N-(2-hydroxyethoxyl)benzamide]	> 1000	101 to 500
C=CC(=O)Nc1ccccc1Nc1nc(NC(C)(C)C)ncc1C(F)(F)F [Compound I-82, N-(2-((2-(tert-Butylamino)-5-(trifluoromethyl)pyrimidin-4-yl)amino)phenyl)acrylamide]	> 1000	501 to 999
C=CC(=O)Nc1ccccc1Nc1nc(Nc2cc(C(N)=O)ccn2)ncc1C(F)(F)F [Compound I-83, 2-((4-((2-Acrylamidophenyl)amino)-5-(trifluoromethyl)pyrimidin-2-yl)amino)isonicotinamide]	101 to 500	101 to 500
C=C(C)S(=O)(=O)Nc1cc(F)ccc1Nc1nc(Nc2cc(C(N)=O)ccc2C)ncc1C(F)(F)F [Compound I-87, 3-((4-((4-Fluoro-2-(1-methylvinylsulfonamido)phenyl)amino)-5-(trifluoromethyl)pyrimidin-2-yl)amino)-4-methylbenzamide]	> 1000	101 to 500
C=CC(=O)Nc1ccccc1Nc1nc(Nc2ccc(N3CCN(C(=O)CCCC(=O)NCCCOCCOCCOCCCNC(=O)CCCC[C@@H]4SC[C@@H]5NC(=O)N[C@@H]54)CC3)cc2OC(F)F)ncc1Cl [Compound I-306, 5-(4-(4-((4-((2-acrylamidophenyl)amino)-5-chloropyrimidin-2-yl)amino)-3-(difluoromethoxy)phenyl)piperazin-1-yl)-5-oxo-N-(15-oxo-19-((3aS,4S,6aR)-2-oxohexahydro-1H-thieno[3,4-d]imidazol-4-yl)-4,7,10-trioxa-14-azanonadecyl)pentanamide]	–	101 to 500
C=CC(=O)Nc1ccccc1Nc1nc(Nc2ccc(N(CC)C(C)=O)cc2C(F)(F)F)ncc1Cl [Compound I-320]	–	501 to 999
